Read-outs that look alike come from different tables or passages of the source.
Key:
KP1005 (CTX-M-14) [1] = assay: Aztreonam potentiation (MPC@4); type: cell-based; conditions: aztreonam 4 μg/mL
KP1009 (CTX-M-15) [2] = assay: Aztreonam potentiation (MPC@4); type: cell-based; conditions: aztreonam 4 μg/mL
ec308 (SHV-5) [3] = assay: Aztreonam potentiation (MPC@4); type: cell-based; conditions: aztreonam 4 μg/mL
KP1010 (SHV-12) [4] = assay: Aztreonam potentiation (MPC@4); type: cell-based; conditions: aztreonam 4 μg/mL
ec302 (TEM-10) [5] = assay: Aztreonam potentiation (MPC@4); type: cell-based; conditions: aztreonam 4 μg/mL
KP1004 (KPC-2) [6] = assay: Aztreonam potentiation (MPC@4); type: cell-based; conditions: aztreonam 4 μg/mL
ECL1002 [7] = assay: Aztreonam potentiation (MPC@4); type: cell-based; conditions: aztreonam 4 μg/mL
EC1010 (CMY-6) [8] = assay: Aztreonam potentiation (MPC@4); type: cell-based; conditions: aztreonam 4 μg/mL
KP1005 (CTX-M-14) [9] = assay: Tigemonam potentiation (MPC@4); type: cell-based; conditions: tigemonam 4 μg/mL
KP1009 (CTX-M-15) [10] = assay: Tigemonam potentiation (MPC@4); type: cell-based
ec308 (SHV-5) [11] = assay: Tigemonam potentiation (MPC@4); type: cell-based; conditions: tigemonam 4 μg/mL
KP1010 (SHV-12) [12] = assay: Tigemonam potentiation (MPC@4); type: cell-based
ec302 (TEM-10) [13] = assay: Tigemonam potentiation (MPC@4); type: cell-based; conditions: tigemonam 4 μg/mL
ECL1002 [14] = assay: Tigemonam potentiation (MPC@4); type: cell-based; conditions: tigemonam 4 μg/mL
EC1010 (CMY-6) [15] = assay: Tigemonam potentiation (MPC@4); type: cell-based; conditions: tigemonam 4 μg/mL; EC1010, CMY-6
CTX-M-14 = CTX-M-14 (Escherichia coli, UniProt Q9L5C7); assay: Inhibition of nitrocefin cleavage by purified enzyme (Ki); type: biochemical; conditions: nitrocefin reporter substrate; 10 min preincubation; read-out: Ki CTX-M-14, NCF
Chain of CTX-M-14 (Q9L5C7 29-291): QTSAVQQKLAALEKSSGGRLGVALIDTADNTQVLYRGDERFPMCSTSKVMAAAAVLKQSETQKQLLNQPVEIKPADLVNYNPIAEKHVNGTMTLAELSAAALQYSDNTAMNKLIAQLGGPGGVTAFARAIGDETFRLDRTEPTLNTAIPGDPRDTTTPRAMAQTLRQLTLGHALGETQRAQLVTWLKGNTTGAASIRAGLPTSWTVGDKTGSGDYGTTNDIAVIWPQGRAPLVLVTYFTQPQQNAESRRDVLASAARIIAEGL
Method: (§1) Ki values of inhibition of purified class A, C and D enzymes were determined spectrophotometrically using nitrocefin as reporter substrate. Purified enzymes were mixed with various concentrations of inhibitors in reaction buffer and incubated for 10 min at room temperature. Nitrocefin was added and substrate cleavage profiles were recorded at 490 nm every 10 sec for 10 min.

SHV-12 = SHV-12 (Klebsiella pneumoniae, UniProt P0AD64, E235K/G234S/L31Q); assay: as above; type: biochemical
Chain of SHV-12 (P0AD64 22-286 L31Q/G234S/E235K): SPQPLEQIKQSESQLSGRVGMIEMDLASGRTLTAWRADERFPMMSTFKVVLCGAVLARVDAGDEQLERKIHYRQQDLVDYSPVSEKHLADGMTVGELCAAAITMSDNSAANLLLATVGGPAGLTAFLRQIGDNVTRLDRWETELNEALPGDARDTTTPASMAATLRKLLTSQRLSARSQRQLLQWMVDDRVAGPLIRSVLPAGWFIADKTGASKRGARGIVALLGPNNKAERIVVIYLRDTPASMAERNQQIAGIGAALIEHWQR
Method: as §1

CMY-2 = CMY-2 (Klebsiella pneumoniae, UniProt Q48434); assay: as above; type: biochemical
Chain of CMY-2 (Q48434 21-381, species assumed): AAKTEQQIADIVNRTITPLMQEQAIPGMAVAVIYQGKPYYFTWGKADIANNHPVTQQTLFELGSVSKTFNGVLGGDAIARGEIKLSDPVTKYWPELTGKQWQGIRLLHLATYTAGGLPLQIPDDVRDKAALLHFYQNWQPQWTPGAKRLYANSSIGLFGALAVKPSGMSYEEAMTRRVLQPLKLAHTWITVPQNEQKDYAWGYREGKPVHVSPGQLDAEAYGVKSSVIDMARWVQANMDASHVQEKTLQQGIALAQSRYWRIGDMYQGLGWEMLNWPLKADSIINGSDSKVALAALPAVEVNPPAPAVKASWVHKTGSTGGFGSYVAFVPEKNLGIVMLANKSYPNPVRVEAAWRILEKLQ
Method: as §1, with “min. These experiments confirmed that the described compounds are inhibitors with a broad-spectrum of activity towards various β-lactamases.” for “min.”

KPC-2 = KPC-2 (Klebsiella pneumoniae, UniProt Q9F663); assay: as above; type: biochemical; conditions: nitrocefin reporter substrate; 10 min preincubation; read-out: Ki KPC-2, NCF
Chain of KPC-2 (Q9F663 25-293, looked up, species assumed): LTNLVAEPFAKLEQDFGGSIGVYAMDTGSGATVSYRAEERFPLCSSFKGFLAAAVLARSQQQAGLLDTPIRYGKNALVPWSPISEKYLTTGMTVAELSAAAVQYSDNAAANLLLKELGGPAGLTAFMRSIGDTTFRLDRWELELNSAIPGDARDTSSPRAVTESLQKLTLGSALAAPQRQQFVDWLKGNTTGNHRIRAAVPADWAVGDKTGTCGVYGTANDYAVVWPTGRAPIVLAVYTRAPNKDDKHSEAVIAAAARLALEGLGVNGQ
Method: as §1, with “min. These experiments confirmed that the described compounds are inhibitors with a broad-spectrum of activity towards various β-lactamases.” for “min.”

OXA-48 = OXA-48 (Klebsiella pneumoniae, UniProt Q6XEC0); assay: as above; type: biochemical; conditions: nitrocefin reporter substrate; 10 min preincubation; read-out: Ki OXA-48, NCF
Chain of OXA-48 (Q6XEC0 23-265, looked up, species assumed): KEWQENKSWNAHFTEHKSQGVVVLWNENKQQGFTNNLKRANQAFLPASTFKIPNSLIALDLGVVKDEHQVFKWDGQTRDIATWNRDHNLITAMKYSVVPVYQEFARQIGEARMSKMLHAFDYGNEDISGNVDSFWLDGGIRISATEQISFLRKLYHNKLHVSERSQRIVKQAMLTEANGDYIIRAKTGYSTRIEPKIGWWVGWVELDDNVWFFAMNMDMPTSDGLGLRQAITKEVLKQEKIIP
Method: as §1, with “min. These experiments confirmed that the described compounds are inhibitors with a broad-spectrum of activity towards various β-lactamases.” for “min.”

P99 = P99 (Enterobacter cloacae, UniProt P05364); assay: biochemical; conditions: nitrocefin reporter substrate; 10 min preincubation; read-out: Ki P99, NCF
Chain of P99 (P05364 21-381): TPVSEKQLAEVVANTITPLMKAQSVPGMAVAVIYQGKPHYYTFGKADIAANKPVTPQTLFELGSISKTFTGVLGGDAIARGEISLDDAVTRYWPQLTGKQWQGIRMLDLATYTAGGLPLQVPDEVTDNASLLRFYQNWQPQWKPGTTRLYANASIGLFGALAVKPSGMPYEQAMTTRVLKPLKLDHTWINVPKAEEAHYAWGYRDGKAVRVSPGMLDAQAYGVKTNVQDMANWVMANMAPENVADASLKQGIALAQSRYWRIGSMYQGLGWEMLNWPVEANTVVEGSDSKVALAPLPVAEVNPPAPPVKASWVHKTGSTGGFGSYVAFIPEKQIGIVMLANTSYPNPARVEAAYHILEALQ
Method: as §1

PAM1032/KPC-2 = assay: Biapenem potentiation MPC64, efflux proficient strain; type: cell-based, Pseudomonas aeruginosa; parameters: unit not given here; conditions: efflux proficient (MexAB-OprM overexpressed); decrease biapenem MIC 64-fold, 32 to 0.5 μg/ml
Method: (§2) Efflux of BLIs from Pseudomonas aeruginosa by the MexAB-OprM efflux pump was also evaluated. The plasmid expressing the gene encoding KPC-2 was introduced into two strains of P. aeruginosa, PAM1032 and PAM1154 that overexpressed or lacked MexAB-OprM, respectively. Due to expression of KPC-2 both strains became resistant to biapenem. […] Potency of BLIs to potentiate biapenem in these strains was determined. […] The ratio of MPC64 values for each BLI in PAM1032/KPC-2 (efflux proficient) and PAM1154/KPC-2 (efflux deficient) was determined to generate the Efflux Index (EI).

PAM1154/KPC-2 = assay: Biapenem potentiation MPC64, efflux deficient strain; type: cell-based, Pseudomonas aeruginosa; parameters: unit not given here; conditions: efflux deficient (lacks MexAB-OprM); decrease biapenem MIC 64-fold, 32 to 0.5 μg/ml
Method: as §2

KP1004 (KPC-2) [16] = assay: Biapenem potentiation (MPC@1); conditions: biapenem 1 μg/mL
KP1086 (OXA-48) = assay: Biapenem potentiation (MPC@1); conditions: biapenem 1 μg/mL
[17] = nitrocefin reporter substrate, 10 min preincubation, read-out: Ki CMY-2, NCF

Row | Structure (SMILES) | MPC@4 aztreonam potentiation (KP1005 (CTX-M-14) [1]) | MPC@4 aztreonam potentiation (KP1009 (CTX-M-15) [2]) | MPC@4 aztreonam potentiation (ec308 (SHV-5) [3]) | MPC@4 aztreonam potentiation (KP1010 (SHV-12) [4]) | MPC@4 aztreonam potentiation (ec302 (TEM-10) [5]) | MPC@4 aztreonam potentiation (KP1004 (KPC-2) [6]) | MPC@4 aztreonam potentiation (ECL1002 [7]) | MPC@4 aztreonam potentiation (EC1010 (CMY-6) [8]) | MPC@4 tigemonam potentiation (KP1005 (CTX-M-14) [9]) | MPC@4 tigemonam potentiation (KP1009 (CTX-M-15) [10]) | MPC@4 tigemonam potentiation (ec308 (SHV-5) [11]) | MPC@4 tigemonam potentiation (KP1010 (SHV-12) [12]) | MPC@4 tigemonam potentiation (ec302 (TEM-10) [13]) | MPC@4 tigemonam potentiation (ECL1002 [14]) | MPC@4 tigemonam potentiation (EC1010 (CMY-6) [15]) | Ki (CTX-M-14) | Ki (KPC-2) | Ki (OXA-48) | MPC@1 biapenem potentiation (KP1004 (KPC-2) [16]) | MPC@1 biapenem potentiation (KP1086 (OXA-48)) | also measured
1 | O=C(CSc1nncs1)N[C@H]1CC=C[C@@H]2CC(=O)OB1O2 [Compound 7, 2-(1,3,4-THIADIAZOL-2-YLTHIO)-N-((2R,6S)-8-OXO-9,10-DIOXA-1-BORABICYCLO[4.3.1]DEC-4-EN-2-YL)ACETAMIDE] | X (X = MPC@4 ≤ 5 μg/mL) | X (X = MPC@4 ≤ 5 μg/mL) | X (X = MPC@4 ≤ 5 μg/mL) | X (X = MPC@4 ≤ 5 μg/mL) | X (X = MPC@4 ≤ 5 μg/mL) | X (X = MPC@4 ≤ 5 μg/mL) | X (X = MPC@4 ≤ 5 μg/mL) | X (X = MPC@4 ≤ 5 μg/mL) | X (X = MPC@4 ≤ 5 μg/mL) | X (key: X = MPC@4 ≤ 5 μg/mL; Y = 5 μg/mL < MPC@4 ≤ 20 μg/mL; Z = MPC@4 > 20 μg/mL) | X (X = MPC@4 ≤ 5 μg/mL) | X (key: X = MPC@4 ≤ 5 μg/mL; Y = 5 μg/mL < MPC@4 ≤ 20 μg/mL; Z = MPC@4 > 20 μg/mL) | Y (Y = 5 μg/mL < MPC@4 ≤ 20 μg/mL) | X (X = MPC@4 ≤ 5 μg/mL) | X (X = MPC@4 ≤ 5 μg/mL) | < 100 nM | 100 to 1000 nM | < 100 nM | X (X = MPC@1 ≤ 5 μg/mL) | Z (Z = MPC@1 > 20 μg/mL) | Ki (SHV-12): < 100 nM; Ki (CMY-2; [17]): < 100 nM; Ki (P99): < 100 nM; PAM1032/KPC-2 Biapenem MPC64 (PAM1032/KPC-2): 40; PAM1154/KPC-2 Biapenem MPC64 (PAM1154/KPC-2): 5
2 | Cc1nnc(SCC(=O)N[C@H]2CC=C[C@@H]3CC(=O)OB2O3)s1 [Compound 8, 2-(5-METHYL-1,3,4-THIADIAZOL-2-YLTHIO)-N-((2R,6S)-8-OXO-9,10-DIOXA-1-BORABICYCLO[4.3.1]DEC-4-EN-2-YL)ACETAMIDE] | X (X = MPC@4 ≤ 5 μg/mL) |  | X (X = MPC@4 ≤ 5 μg/mL) | X (X = MPC@4 ≤ 5 μg/mL) | X (X = MPC@4 ≤ 5 μg/mL) | Y (Y = 5 μg/mL < MPC@4 ≤ 20 μg/mL) | X (X = MPC@4 ≤ 5 μg/mL) | Y (Y = 5 μg/mL < MPC@4 ≤ 20 μg/mL) | Y (Y = 5 μg/mL < MPC@4 ≤ 20 μg/mL) | X (key: X = MPC@4 ≤ 5 μg/mL; Y = 5 μg/mL < MPC@4 ≤ 20 μg/mL; Z = MPC@4 > 20 μg/mL) | Y (Y = 5 μg/mL < MPC@4 ≤ 20 μg/mL) | X (key: X = MPC@4 ≤ 5 μg/mL; Y = 5 μg/mL < MPC@4 ≤ 20 μg/mL; Z = MPC@4 > 20 μg/mL) | Y (Y = 5 μg/mL < MPC@4 ≤ 20 μg/mL) | X (X = MPC@4 ≤ 5 μg/mL) | X (X = MPC@4 ≤ 5 μg/mL) | < 100 nM | 100 to 1000 nM | < 100 nM | X (X = MPC@1 ≤ 5 μg/mL) | Z (Z = MPC@1 > 20 μg/mL) | Ki (SHV-12): < 100 nM; Ki (CMY-2; [17]): < 100 nM; Ki (P99): < 100 nM
3 | C[C@]1(Cn2ccnn2)[C@H](C(=O)O)N2C(=O)C[C@H]2S1(=O)=O [Tazobactam, reference compound] | Y (Y = 5 μg/mL < MPC@4 ≤ 20 μg/mL) | Y (Y = 5 μg/mL < MPC@4 ≤ 20 μg/mL) |  | X (X = MPC@4 ≤ 5 μg/mL) | X (X = MPC@4 ≤ 5 μg/mL) | Z (Z = MPC@4 > 20 μg/mL) | Z (Z = MPC@4 > 20 μg/mL) | Y (Y = 5 μg/mL < MPC@4 ≤ 20 μg/mL) |  |  | X (X = MPC@4 ≤ 5 μg/mL) |  | X (X = MPC@4 ≤ 5 μg/mL) |  | X (X = MPC@4 ≤ 5 μg/mL) |  | > 1000 nM | 100 to 1000 nM | Z (Z = MPC@1 > 20 μg/mL) | Y (Y = 5 μg/mL < MPC@1 ≤ 20 μg/mL) | MPC@4 tigemonam potentiation (KP1009 (CTX-M-15) [10]; tigemonam 4 μg/mL, KP1009, CTX-M-15): Y (Y = 5 μg/mL < MPC@4 ≤ 20 μg/mL); MPC@4 tigemonam potentiation (KP1010 (SHV-12) [12]; tigemonam 4 μg/mL, KP1010, SHV-12): X (X = MPC@4 ≤ 5 μg/mL); Ki (CMY-2): 100 to 1000 nM

Source: patent US10662205B2, “Cyclic boronic acid ester derivatives and therapeutic uses thereof” (priority 2014, dated 2020)
